# In patent US20180028552A1, “COMBINATION THERAPY FOR TREATING CANCER” (Epizyme, Inc., priority 2015, published 2018):
# “Also recorded” adds a separate entry of the source.
# Key:
# MV4-11 tumors = assay: MV4-11 subcutaneous xenograft efficacy study in nude rats; format: in vivo, rat; details: single agent at the MTD (Azacitidine 2 mg/kg, Cytarabine 200 mg/kg), intraperitoneal once daily for 14 days
# Protocol: (§2) To follow up on these findings and to determine if combinations were tolerable and efficacious in vivo, nude rats implanted subcutaneously with MV4-11 tumors were dosed using a range of doses and schedules. […] In preparation for an efficacy combination study, the Azacitidine and Cytarabine single agent activity in a MV4-11 model was determined.
# (§3) 35 mg/kg/day EPZ-5676 was administered by continous IV (CIV) infusion while Azacitdine and Cytarabine was dosed daily by intraperitoneal injection at 2 and 200 mg/kg respectively. […] The tumor volumes are represented as the median tumor volumes mm^3 of the group.
# in vivo = details: nude, rat, ip
# Protocol: as §2, §3
# NOMO-1 (MLL-AF9) cells [1] = assay: Cellular differentiation assay (CD11b/CD14) in NOMO-1 cells; format: cell-based; details: 0.5 μM EPZ-5676; day not given
# Protocol: (§1) FIGS. 4A-4H are a series of schematics and graphs that depict the effect on cellular differentiation of AZA priming in AML cell lines. […] FIG. 4C depicts AZA dose response curves for an AML cell line panel. […] For the flow cytometry assays, Annexin V/7-AAD staining was used to assess cell death, and CD11b/CD14 antibodies were used to evaluate cellular differentiation. […] Flow cytometry assays were also performed to assess cellular differentiation and cell death following AZA priming followed by treatment of the cells with 0.5 μM EPZ-5676.
# RS4;11 (MLL-AF4) cells [2] = assay: Cellular differentiation assay in RS4;11 cells; format: cell-based; details: for cellular differentiation: 0.5 μM EPZ-5676, day not given
# HOXA9 = HOXA9 expression; format: cell-based; details: dose dependent
# Excerpt: For example, a gene expression assay that can be used includes the steps of (1) culturing cells (e.g., EOL-1, KOPM-88, Molm13, MV411, LOUCY, SemK2, Reh, HL60, BV173, or Jurkat cells) in the presence or absence of a compound (e.g., Compound A2 and/or a DNMT inhibitor); (2) harvesting the cells; (3) extracting the RNA using methods known in the art (e.g., Qiagen RNeasy Kit); (4) synthesizing cDNA from the extracted RNA (e.g., Applied Biosystems reverse transcriptase kit); (5) preparing qPCR reactions using, for example, primers and probes (e.g., predesigned labeled primer and probe sets for HOXA9, FLT3, MEIS1, MEIS2, TBP, BCL, DOT1L, and β2-microglobulin from Applied Biosystems), synthesized sample cDNA, and qPCR master mix reagent (e.g., Applied Biosystems Taqman universal PCR master mix); (6) running samples on PCR machine (e.g., Applied Biosystems); (7) analysis of the data and calculation of relative gene expression.
# [3] = test system: MLL rearranged leukemia xenograft; details: in vivo; cited from earlier work
# [4] = test system: REH (non-rearranged control); assay: Cell kill combination study in REH cells; format: cell-based; details: sensitive is defined as IC50 ≤ 3 μM
# MV4-11 (MLL-AF4) cells [5] = assay: Cellular differentiation assay (CD11b/CD14 flow cytometry) in MV4-11 cells; format: cell-based
# Protocol: FIGS. 4A-4H are a series of schematics and graphs that depict the effect on cellular differentiation of AZA priming in AML cell lines. FIGS. 4A and 4B are a series of schematics that depict the experimental setup of the assays performed to determine differentiation and cell death. FIG. 4C depicts AZA dose response curves for an AML cell line panel. FIGS. 4D-4G are a series of flow cytometry assays that were performed to assess cellular differentiation and cell death in the NOMO-1 acute myeloid leukemia cell line. For the flow cytometry assays, Annexin V/7-AAD staining was used to assess cell death, and CD11b/CD14 antibodies were used to evaluate cellular differentiation. […] Flow cytometry assays were also performed to assess cellular differentiation and cell death following AZA priming followed by treatment of the cells with 0.5 μM EPZ-5676.
# FIGS. 6A-6D are a series of flow cytometry graphs that depict cellular differentiation and cell death following treatment of MV4-11 (MLL-AF4) cells with vehicle or AZA priming followed by 0.5 μM EPZ-5676, or vehicle only conditions.
# MEIS1 = MEIS1 mRNA expression in MV4-11 cell line; format: cell-based; details: with increased concentrations (dose dependent)
# Protocol: FIGS. 1A-1D are a series of graphs that depict mRNA expression levels of MEIS1 (FIGS. 1A and 1C) and HOXA2 (FIGS. 1B and 1D) in the MV4-11 cell line following treatment with AZA (also referred to herein as Azacitidine) and EPZ-5676. The data depicted in FIGS. 1A and 1B are from assays in which various concentrations of EPZ-5676 or DMSO alone, in combination with 1 μM AZA QD×3, 0.3 μM AZA QD×3, or vehicle alone were contacted with the cultured MV4-11 cells. (QD=daily dosage; QD×3=three day treatment). […]
# RS4;11 (MLL-AF4) cells [6] = assay: Cell death / cell kill in RS4;11 cells; format: cell-based; details: for cell death / cell kill: 0.5 μM EPZ-5676, day not given
# ML-2 (MLL-AF6) cells [7] = assay: Cellular differentiation assay in ML-2 cells; format: cell-based; details: for cellular differentiation (CD14+ differentiated cell population): 0.5 μM EPZ-5676, day not given
# [8] = test system: histone H3K79 methylation; details: cited from earlier work
# ML-2 (MLL-AF6) cells [9] = assay: Cell death / cell kill in ML-2 cells; format: cell-based; details: for cell death: 0.5 μM EPZ-5676, day not given
# H3K79me2 = H3K79me2 ChIP-qPCR in MV4-11 cells; format: cell-based; details: 0.5 μM EPZ-5676; 0.5 μM QD×3 AZA
# Protocol: FIGS. 3A-3D are a series of graphs that contain data obtained from H3K79me2 ChIP-qPCR assays of MV4-11 (MLL-AF4) cells at various time points following exposure to either vehicle alone, vehicle and 0.5 μM EPZ-5676, or 0.5 μM QD×3 AZA and 0.5 μM EPZ-5676.
# NOMO-1 (MLL-AF9) cells [10] = assay: Cell death / cell kill in NOMO-1 cells (Annexin V/7-AAD); format: cell-based; details: for resistance of cell line to the agent: sensitive is defined as IC50 ≤ 3 μM
# Protocol: as §1
# MV4-11 (MLL-AF4) cells [11] = assay: Cell death / cell kill in MV4-11 cells (Annexin V/7-AAD flow cytometry, CTG, cell count, Incucyte caspase 3/7); format: cell-based; details: for cell death in a dose response experiment: single agent dose response
# Excerpt: FIG. 2A depicts three experimental conditions: 1) MV4-11 cells were contacted with AZA for three consecutive days, followed by treatment with EPZ-5676 on the second, fourth, sixth, and ninth day; 2) the MV4-11 cells were contacted with vehicle for three consecutive days, followed by treatment with EPZ-5676 on the second, fourth, sixth, and ninth day; and 3) the MV4-11 cells were contacted with vehicle for three consecutive days, followed by contact with vehicle on the second, fourth, sixth, and ninth day.
# FIGS. 5A-5F are a series of graphs that depict real-time imaging to study the effect of AZA priming on MV4-11 cells utilizing Incucyte Zoom® for suspension cell imaging. […] The Kinetic Caspase 3/7 reagent was used to assess cell death (FIG. 5B). For these assays, 6,000 cells were plated per well of a 96-well plate and dosed with EPZ-5676 using a ten point concentration gradient starting from 10 μM. 1× caspase dye was then added to each well. FIG. 5C is a series of graphs that depict real-time monitoring of cell death using Caspase 3/7 kinetic dye. […] FIG. 5E is a series of graphs that depict real-time monitoring of AUC Growth by Red object (labeled cell) count. FIG. 5F is a series of graphs that depicts cellular AUC growth following vehicle or AZA priming followed by treatment with EPZ-5676, and control conditions including vehicle alone, DMSO.
# In this study of Example 1, the flexibility of treatment schedules when EPZ-5676 was combined with Azacitidine in MLL-r cells was evaluated.
# Compounds were evaluated for cell killing effects as single agents and in combination according to the methods described in the experimental setup.
# [12] = 0.5 μM EPZ-5676 with or without AZA priming, day not given
# [13] = sensitive is defined as IC50 ≤ 3 μM
smiles,measurement,setting,value
Nc1ccn([C@@H]2O[C@H](CO)[C@@H](O)[C@@H]2O)c(=O)n1 [Cytarabine],inhibition of subcutaneous MV4-11 tumor compared to vehicle control,MV4-11 tumors,50%
same,MTD at 14 days,in vivo,200 mg/kg
"CC(C)N(C[C@H]1O[C@@H](n2cnc3c(N)ncnc32)[C@H](O)[C@@H]1O)[C@H]1C[C@@H](CCc2nc3cc(C(C)(C)C)ccc3[nH]2)C1 [EPZ-5676, pinometostat]",amount of CD14+ cells,NOMO-1 (MLL-AF9) cells [1],increase
same,cellular differentiation,RS4;11 (MLL-AF4) cells [2],no cell differentiation
same,differentiation,RS4;11 (MLL-AF4) cells [2]; Day 6,No differentiation
same,differentiation,RS4;11 (MLL-AF4) cells [2]; Day 10,No differentiation
same,HOXA9 expression,HOXA9,reduces
same,tumor response,[3],complete tumor regressions
same,resistance of cell line to the agent,[4],resistant
same,cellular differentiation (CD14 positive population),MV4-11 (MLL-AF4) cells [5]; [12],no increase
same,CD11b+ cell population,MV4-11 (MLL-AF4) cells [5]; Day 6,Depletion of CD11b+ cell
same,CD14+ cell population,MV4-11 (MLL-AF4) cells [5]; Day 6,No increase in CD14+
same,CD11b+ cell population,MV4-11 (MLL-AF4) cells [5]; Day 10,Depletion of CD11b+
same,CD14+ cell population,MV4-11 (MLL-AF4) cells [5]; Day 10,No increase in CD14+—
same,MEIS1 mRNA levels / expression,MEIS1,reduces
same,cell death / cell kill,RS4;11 (MLL-AF4) cells [6],no cell death
same,cell kill,RS4;11 (MLL-AF4) cells [6]; Day 6,No cell kill with EPZ-
same,cell kill,RS4;11 (MLL-AF4) cells [6]; Day 10,No cell kill with EPZ-
same,resistance of cell line to the agent,RS4;11 (MLL-AF4) cells [6]; [13],resistant
same,cellular differentiation (CD14+ differentiated cell population),ML-2 (MLL-AF6) cells [7],no cell differentiation; also recorded: population as compared to no
same,differentiation,ML-2 (MLL-AF6) cells [7]; Day 6,No differentiation
same,differentiation,ML-2 (MLL-AF6) cells [7]; Day 10,No differentiation
same,inhibition of intracellular histone H3K79 methylation,[8],selectively inhibits
same,cell death,ML-2 (MLL-AF6) cells [9],no cell death
same,cell kill,ML-2 (MLL-AF6) cells [9]; Day 6,No cell kill with EPZ-
same,cell kill,ML-2 (MLL-AF6) cells [9]; Day 10,No cell kill with EPZ-
same,resistance of cell line to the agent,ML-2 (MLL-AF6) cells [9]; [13],resistant
same,"H3K79me2 signal / mark (ChIP-qPCR, MEIS1 and HOXA9 genes)",H3K79me2,reduced; also recorded: single agent both decrease H3K79me2
same,cell death,"NOMO-1 (MLL-AF9) cells [10]; 0.5 μM EPZ-5676, day not given",no appreciable cell death
same,cell kill,NOMO-1 (MLL-AF9) cells [10]; Day 6,No cell kill with EPZ-
same,cell kill,NOMO-1 (MLL-AF9) cells [10]; Day 10,No cell kill with EPZ-
same,resistance of cell line to the agent,NOMO-1 (MLL-AF9) cells [10],resistant
same,cell death,MV4-11 (MLL-AF4) cells [11]; [12],no appreciable cell death
same,IC50,"MV4-11 (MLL-AF4) cells [11]; Homo sapiens, MV4-11, read-out: sensitivity of MV4-11 to EPZ-5676",≤ 3 µM
same,cell death in a dose response experiment,MV4-11 (MLL-AF4) cells [11],EPZ-5676 does not induce cell death in
"Nc1ncn([C@@H]2O[C@H](CO)[C@@H](O)[C@H]2O)c(=O)n1 [Azacitidine, reference compound]",cellular differentiation,RS4;11 (MLL-AF4) cells [2],no effect
same,inhibition of subcutaneous MV4-11 tumor compared to vehicle control,MV4-11 tumors,50%
same,cell death / cell kill,RS4;11 (MLL-AF4) cells [6],effect on cell death
same,cellular differentiation (CD14+ differentiated cell population),ML-2 (MLL-AF6) cells [7],no effect
same,cell death,ML-2 (MLL-AF6) cells [9],effect on cell death
same,MTD at 14 days,in vivo,2 mg/kg
same,resistance of cell line to the agent,NOMO-1 (MLL-AF9) cells [10],resistant
same,cell death in a dose response experiment,MV4-11 (MLL-AF4) cells [11],AZA induces cell death in MV4-11 cells
